Patent US7008613B2, “Quaternary ammonium compounds” (Les Laboratoires Servier, priority 1999, dated 2006)

Assay: Tissue distribution study by measurement of radioactivity across whole-body sections
Assay type: in vivo, male Sprague-Dawley rats
Conditions: for radioactivity bound by the kidney (elimination organ): first minutes following the injection; for tissue distribution of radioactivity: target organs/tissues: labelled molecule, rat whole-body sections
Experimental: Pharmacokinetic Study: Tissue Distribution Study
This study was carried out with molecules labelled with ^14C. The tissue distribution study was carried out by direct measurement of the radioactivity across whole-body sections in accordance with the following method: male Sprague-Dawley rats were administered intravenously or orally with a dose of the labelled molecule. Then, at times ranging from 5 minutes to 24 hours after the administration, the animals were sacrificed by ether inhalation and frozen in liquid nitrogen.
Sections were then prepared using a cryomicrotome and, after desiccation, the distribution of radioactivity was measured using an image analyser.

C[N+](C)(C)CC(=O)N[C@H]1C(O)O[C@H](CO)[C@@H](O)[C@@H]1O.[Cl-] (stereo partly drawn) [Example 4, 2-(N,N,N-trimethylammonioacetamido)-2-deoxy-α,β-D-glucopyranose chloride]
radioactivity bound by the kidney (elimination organ): binds significant amounts of radioactivity
tissue distribution of radioactivity: target organs/tissues (after injection): cartilage, and to a lesser degree skin, are the only targets

O=C(C[n+]1ccccc1)N[C@H]1C(O)O[C@H](CO)[C@@H](O)[C@@H]1O.[Cl-] (stereo partly drawn) [Example 5, 2-(Pyridinioacetamido)-2-deoxy-α,β-D-glucopyranose chloride]
radioactivity bound by the kidney (elimination organ): binds significant amounts of radioactivity
tissue distribution of radioactivity: target organs/tissues (after injection): cartilage, and to a lesser degree skin, are the only targets

CN1C(C(=O)NCCC[N+](C)(C)C)=C(O)c2ccccc2S1(=O)=O.[I-] [Example 6, {3-[(4-Hydroxy-2-methyl-1,1-dioxide-2H-1,2-benzothiazin-3-yl)-carboxamido]propyl}trimethylammonium iodide]
affinity for cartilage (administration of the labelled molecule by the oral route): very high affinity for cartilage
time of maximum binding to cartilage (after injection): 5 min
affinity of cartilage versus surrounding tissues (after injection of labelled molecule): cartilage exhibits a far greater affinity than the surrounding tissues

N[C@H]1C(O)O[C@H](CO)[C@@H](O)[C@@H]1O (some centres unmarked) [glucosamine, reference compound]
tissue distribution of radioactivity: target organs/tissues (after injection): the liver is the main target organ
